This note sets out measurements from patent EP0391462A1, “Synergistic compositions containing ketanserin” (JANSSEN PHARMACEUTICA N.V., priority 1989, dated 1990).

Experiment [1] deals with patients with moderate, uncomplicated hypertension. The note with it: difference between treated and untreated patients, mean ± standard error; end of treatment period, 1-2 hours after last dose, seated; ketanserin 40 mg b.i.d., captopril 50 mg b.i.d. Here is the method: The effect of a combination of the compound ketanserin (I) and an ACE inhibitor, captopril, on the lowering of blood pressure was investigated in a double-blind randomized cross-over study according to a latin square design.
Adult (≧18 years) patients with moderate, uncomplicated hypertension (105 mmHg ≦ DBP ≦ 115 mmHg at the end of a 1 month placebo wash-out period) were randomly assigned to: - placebo (1 tab q.i.d.); - placebo (1 tab b.i.d.) + ketanserin (1 tab 40 mg b.i.d.); - placebo (1 tab b.i.d.) + captopril (1 tab 50 mg b.i.d.); - ketanserin (1 tab 40 mg b.i.d.) + captopril (1 tab 50 mg b.i.d.).
At the end of each treatment period (1-2 hours after the last dose), blood pressure (by a mercury sphygmomanometer) and heart rate (by the palpatory method over a 30˝ period) of patients seated for 10′ were recorded by the same investigator during 3 measurements at 2′ intervals.

Experiment [2] deals with patients with mild to moderate, uncomplicated, essential hypertension. In kind it is in vivo. The note with it: absolute value, mean ± standard error; end of 3 month monotherapy (ketanserin 2 weeks 20 mg b.i.d. then 10 weeks 40 mg b.i.d., 9 pts; enalapril 12 weeks 10 mg b.i.d., 7 pts). The protocol: The effect of a combination of the compound ketanserin (I) and enalapril on the lowering of blood pressure was investigated in a randomized double-blind parallel group study. Elderly (≧ 50 years) patients with mild to moderate, uncomplicated, essential hypertension (95 mm Hg ≦ DBP ≦ 105 mm Hg at the end of a 3 month period on double blind monotherapy) received ketanserin (1 tab 40 mg b.i.d.) + enalapril (1 tab 10 mg b.i.d.). […] Bloodpressure (SBP, DBP) and heart rate (HR) (mean values ± standard error) are in mm Hg and b.p.m.

For `C[C@H](CS)C(=O)N1CCC[C@H]1C(=O)O` [Captopril, captopril], in experiment [1], the “difference of diastolic blood pressure (DBP)” value is reported as -8.75±1.3 mmHg and the “difference of systolic blood pressure (SBP)” value was -8.75±1.96 mmHg.
Regarding `CCOC(=O)[C@H](CCc1ccccc1)N[C@@H](C)C(=O)N1CCC[C@H]1C(=O)O` [Enalapril, enalapril], in experiment [2], the “DBP, End Monotherapy Phase” value is reported as 101.42±10.07 mm Hg and the “SBP, End Monotherapy Phase” value was found to be 160.0±5.77 mm Hg.
`O=C(c1ccc(F)cc1)C1CCN(CCn2c(=O)[nH]c3ccccc3c2=O)CC1` [Ketanserin, 3-[2-[4-(4-fluorobenzoyl)-1-piperidinyl]ethyl]-2,4(1H,3H)-quinazolinedione]: in experiment [1], the “difference of diastolic blood pressure (DBP)” value is -7.92±1.3 mmHg and the “difference of systolic blood pressure (SBP)” value was -8.33±2.33 mmHg. Besides, in experiment [2], the “DBP, End Monotherapy Phase” value amounted to 102.22±5.65 mm Hg and the “SBP, End Monotherapy Phase” value came out at 148.88±13.64 mm Hg.
